From patent US20260217701A1, “SELECTIVE BET INHIBITORS AND USES THEREOF” (Tay Therapeutics Limited, priority 2022, published 2026)
Several values for one entry are separate records, joined by “and”; a condition that tells them apart may be missing. Equal values may be shown once. Read-outs that look alike come from different tables or passages of the source.

Test: Dog PK study #1 (Compound A IV and PO, propylene glycol formulation)
Format: in vivo, beagle dogs
Details: for Vd: read-out: Vss—obs
Excerpt: The purpose of this study was to examine the pharmacokinetics of Compound A in beagle dogs. Four beagle dog studies were undertaken, one where Compound A was formulated in a propylene glycol based formulation (Dog PK study #1-PO and IV), a second where Compound A was formulated in a HPBCD based formulation (Dog PK study #2-IV), a third where Compound A was formulated in a 5% DMSO/15% PEG-400/80% (10% VE-TPGS) formulation (Dog PK study #3-PO), and a fourth where Compound A was formulated in […]/15% PEG-400/80% (10% VE-TPGS) formulation (Dog PK study #4-PO).
For Dog PK study #1, two solutions of different concentrations of Compound A were prepared in 20% propylene glycol/20% Vitamin E TPGS/60% water as outlined in Table 2A in Experimental Method A. The solutions of Compound A in 20% propylene glycol/20% Vitamin E TPGS/60% water were prepared freshly prior to use. The Compound A solutions administered were then administered to animals either intravenously (IV) or orally (PO) and animals were then monitored over a 24 h period (Table 3B). Body weight was recorded prior to dosing, and detailed clinical observations were made prior to dosing and throughout the study, as needed.
Blood samples (~0.3 mL) were collected according to a schedule (shown below) by venipuncture of peripheral veins except for the dosing vein, and EDTA-K2 was used as anticoagulant. Within 30 minutes of collection, the samples were centrifuged at approximately 2000 times g-force for 10 minutes at 4° C. to obtain blood plasma. The plasma samples were immediately divided into two aliquots (~75 μL each), transferred to a cryogenic vial, and stored in a freezer at −75±15° C. prior to analysis.
Blood samples for IV were collected at 0.083, 0.25, 0.5, 1, 2, 4, 8, 24 h and blood samples for PO were collected at 0.25, 0.5, 1, 2, 4, 8, and 24 h following the initial dosing (0 h).
The concentration of Compound A in the blood plasma was determined through liquid chromatography-mass spectrometry (LC-MS). The experiments were conducted on a Shimadzu HPLC(DGU-20A5R; LC-30AD; SIL-30AC; Rack Changer II; CTO-30A; and CBM-20A) and AB API 5500+LC/MS/MS instrument with an Agilent Poroshell EC-C18 4 μm (50×2.1 mm) column. A gradient of 95% water (0.1% formic acid)/95% acetonitrile (0.1% formic acid) was used as the mobile phase. The sample injection volume was 10 μL, and the flow rate was 0.6 mL/min. The gathered data were used for pharmacokinetic calculations using T1/2, C0, AUClast, AUCinf, MRTinf, Cl, Vss, and Number of Points for Regression as parameters.
The desired serial concentrations of working solutions were achieved by diluting stock solution of analyte with 50% acetonitrile in water solution. 5 μL of working solutions (5, 10, 20, 50, 100, 500, 1000, 5000, 10000 ng/mL) were added to 50 μL of the blank Beagle Dogs plasma to achieve calibration standards of 0.5~1000 ng/ml (0.5, 1, 2, 5, 10, 50, 100, 500, 1000 ng/ml) in a total volume of 55 μL. Five quality control samples at 1 ng/ml, 2 ng/ml, 5 ng/ml, 50 ng/mL and 800 ng/ml for plasma were prepared independently of those used for the calibration curves. These QC samples were prepared on the day of analysis in the same way as calibration standards.
55 μL standards, 55 μL QC samples and 55 μL unknown samples (50 μl plasma with 5 μL blank solution were added to 200 μL of acetonitrile containing IS mixture (verapamil) for precipitating protein respectively. Then the samples were vortexed for 30 s. After centrifugation at 4° C., 3900 rpm for 15 min, the supernatant was diluted 3 times with water. 10 μL of diluted supernatant was injected into the LC/MS/MS system for quantitative analysis.

[1] = IV 1 mg/kg, individual animals, 1 mg/kg
[2] = beagle, dog, plasma, iv, 1 mg/kg, IV 1 mg/kg, individual animals, read-out: Plasma concentration
[3] = beagle, dog, plasma, iv, 1 mg/kg, IV 1 mg/kg, mean, read-out: Average plasma concentration
[4] = beagle, dog, plasma, iv, 1 mg/kg, IV 1 mg/kg, mean
[5] = beagle, dog, plasma, iv, 1 mg/kg, IV 1 mg/kg, individual animals
[6] = beagle, dog, plasma, po, 5 mg/kg, oral 5 mg/kg, individual animals, read-out: Plasma concentration
[7] = beagle, dog, plasma, po, 5 mg/kg, oral 5 mg/kg, mean, read-out: Average plasma concentration
[8] = beagle, dog, plasma, po, 5 mg/kg, oral 5 mg/kg, mean
[9] = beagle, dog, plasma, po, 5 mg/kg, oral 5 mg/kg, individual animals
[10] = oral 5 mg/kg, individual animals, 5 mg/kg

Cn1cc(-c2ccccc2)c(-c2cn(C)c(=O)c3[nH]c(-c4cnn(C(F)(F)F)c4)cc23)cc1=O [Compound A, 6-methyl-4-(1-methyl-2-oxo-5-phenyl-1,2-dihydropyridin-4-yl)-2-(1-(trifluoromethyl)-1H-pyrazol-4-yl)-1,6-dihydro-7H-pyrrolo[2,3-c]pyridin-7-one]
AUClast [1]: 4.746 µg·h/mL and 2.876 µg·h/mL and 7.862 µg·h/mL | AUClast/D [1]: 4746 (ng · h/mL)/(mg/kg) and 2876 (ng · h/mL)/(mg/kg) and 7862 (ng · h/mL)/(mg/kg) | AUClnf [1]: 4.892 µg·h/mL and 2.944 µg·h/mL and 8.955 µg·h/mL | AUC—%Extrap—obs [1]: 2.98% and 2.32% and 12.2% | C0 [1]: 1.618 µg/mL and 1.767 µg/mL | CI_obs [1]: 0.205 L/h/kg and 0.34 L/h/kg and 0.112 L/h/kg | MRTlnf—obs [1]: 5.21 h and 4.15 h and 10.0 h | T1/2 [1]: 5.23 h and 8.60 h | Vss—obs [1]: 1.41 L/kg and 1.12 L/kg | AUClast/D (IV 1 mg/kg, mean): 5162 (ng · h/mL)/(mg/kg) | AUC—%Extrap—obs (IV 1 mg/kg, mean): 5.8% | CI_obs (IV 1 mg/kg, mean): 0.218 L/h/kg | MRTlnf—obs (IV 1 mg/kg, mean): 6.5 h | time over which plasma concentration increased after oral administration (PO, all animals): 2 h | concentration at 0.083 h [2]: 1.48 µg/mL | concentration at 0.083 h [3]: 1.48 µg/mL | concentration at 0.25 h [2]: 1.13 µg/mL | concentration at 0.25 h [3]: 1.13 µg/mL | concentration at 0.5 h [2]: 0.971 µg/mL | concentration at 0.5 h [3]: 0.912 µg/mL | concentration at 1 h [2]: 0.802 µg/mL | concentration at 1 h [3]: 0.764 µg/mL | concentration at 2 h [2]: 0.594 µg/mL | concentration at 2 h [3]: 0.586 µg/mL | concentration at 4 h [4]: 0.293 µg/mL | concentration at 8 h [4]: 0.169 µg/mL | concentration at 24 h [4]: 0.0387 µg/mL | half-life [5]: 5.26 h | C0 (beagle, dog, plasma, iv, 1 mg/kg, IV 1 mg/kg, individual animals, read-out: C0): 1.69 µg/mL | Vd [5]: 1.06 L/kg | AUC [4]: 5.6 µg·h/mL | AUC(0-t) [4]: 5.16 µg·h/mL | half-life [4]: 6.37 h | C0 (beagle, dog, plasma, iv, 1 mg/kg, IV 1 mg/kg, mean, read-out: C0): 1.69 µg/mL | Vd [4]: 1.2 L/kg | concentration at 0.25 h [6]: 0.0251 µg/mL | concentration at 0.25 h [7]: 0.0267 µg/mL | concentration at 0.5 h [6]: 0.147 µg/mL | concentration at 0.5 h [7]: 0.127 µg/mL | concentration at 1 h [7]: 0.293 µg/mL | concentration at 2 h [7]: 0.435 µg/mL | concentration at 4 h [8]: 0.369 µg/mL | concentration at 8 h [8]: 0.123 µg/mL | concentration at 24 h [8]: 0.0299 µg/mL | AUC [9]: 4.52 µg·h/mL | half-life [9]: 4.54 h | AUC [8]: 4.27 µg·h/mL | AUC(0-t) [8]: 3.5 µg·h/mL | half-life [8]: 4.07 h | Cmax (beagle, dog, plasma, po, 5 mg/kg, oral 5 mg/kg, mean, read-out: Cmax): 0.435 µg/mL | Tmax (beagle, dog, plasma, oral 5 mg/kg, individual animals): 2 h | AUClast [10]: 4.398 µg·h/mL and 2.122 µg·h/mL and 3.976 µg·h/mL | AUClast/D [10]: 880 (ng · h/mL)/(mg/kg) and 424 (ng · h/mL)/(mg/kg) and 795 (ng · h/mL)/(mg/kg) | AUClnf [10]: 4.019 µg·h/mL | AUC—%Extrap—obs [10]: 2.78% and 1.09% | Cmax [10]: 0.498 µg/mL and 0.228 µg/mL and 0.58 µg/mL | F [10]: 16.2% and 8.22% and 14.4% | MRTlnf—obs [10]: 6.47 h and 5.27 h | T1/2 [10]: 3.61 h | AUClast/D (oral 5 mg/kg, mean): 700 (ng · h/mL)/(mg/kg) | AUC—%Extrap—obs (oral 5 mg/kg, mean): 1.93% | F (oral 5 mg/kg, mean): 12.9% | MRTlnf—obs (oral 5 mg/kg, mean): 5.87 h | availability and tolerability (overall statement on the four dog PK studies): IV and orally available and well tolerated
